Columns and labels:
mouse plasma = test: Ex vivo coagulation time with mice (oral administration), extrinsic coagulation time (PT); format: in vivo, male ICR mice; conditions: oral 100 mg/kg, 30 minutes after administration
Experimental: 4) Test of Measuring Ex Vivo Coagulation Time with Mice (Oral Administration):
To test animals of male ICR mice (body weight, about 40 g, SLC) that had been fasted for 12 hours or longer, a solution or suspension of a test compound dissolved in 0.5% methyl cellulose was forcedly orally administered (100 mg/kg), using a feeding needle; and after 30 minutes and after 2 hours, under anesthesia with diethyl ether, 1 ml of blood was collected from the mice through their postcaval vein in 3.8% sodium citrate to be 1/10 by volume, and centrifuged at 12000 rpm for 3 minutes to separate plasma therefrom. The extrinsic coagulation time (PT) and the intrinsic coagulation time (APTT) for this plasma were measured according to the following methods a) and b).
a) Extrinsic Coagulation Time (PT):
50 μl of the mouse plasma was warmed at 37° C. for 1 minute, and 100 μl of HemosIL RecombiPlasTin was added, and the coagulation time was counted. For measuring the coagulation time, used was Amelung's KC10A. The mouse plasma coagulation time with no test compound administration was control; and the coagulation time prolonging activity of the test compound was represented by a relative value to the control, 1.

human plasma = test: Extrinsic coagulation time (PT) in human plasma; conditions: HemosIL RecombiPlasTin
Experimental: 3) Extrinsic Coagulation Time (PT):
2 μl of a test compound dissolved in DMSO or DMSO alone, and 50 μl of physiological saline were added to 50 μl of human plasma warmed at 37° C. for 1 minute, then 100 μl of HemosIL RecombiPlasTin (Instrumentation Laboratory) was added, and the coagulation time was measured. For measuring the coagulation time, used was Amelung's KC10A. The CT2 value (the concentration for 2-fold prolongation of the coagulation time with DMSO) was calculated through linear regression, by plotting the relative value (fold) of the coagulation time to the control and the test compound concentration.

human factor Xa = target: T1, human factor Xa (Homo sapiens, UniProt P00742); test: Enzyme inhibition by synthetic substrate method (S-2222); format: biochemical; conditions: human factor Xa 0.025 U/ml, synthetic substrate S-2222, pH 8.4, 37° C., 10 minutes
T1 construct: purchased Enzyme Research Labs
Experimental: 2) Test of Measuring Enzyme Inhibition by Synthetic Substrate Method:
25 μl of a reaction buffer (pH 8.4), 5 μl of a test compound dissolved in DMSO or DMSO alone, and 10 μl of a synthetic substrate, 2 mM S-2222 (Chromogenix) were added to a 96-well microplate, then 10 μl of 0.025 U/ml human factor Xa was added thereto, and reacted at 37° C. for 10 minutes, and then the absorbance change at 405 nm was measured with Molecular Devices' Spectramax 340PC^384, and the IC50 value was calculated.

T1 sequence (P00742 235-488 limits assumed): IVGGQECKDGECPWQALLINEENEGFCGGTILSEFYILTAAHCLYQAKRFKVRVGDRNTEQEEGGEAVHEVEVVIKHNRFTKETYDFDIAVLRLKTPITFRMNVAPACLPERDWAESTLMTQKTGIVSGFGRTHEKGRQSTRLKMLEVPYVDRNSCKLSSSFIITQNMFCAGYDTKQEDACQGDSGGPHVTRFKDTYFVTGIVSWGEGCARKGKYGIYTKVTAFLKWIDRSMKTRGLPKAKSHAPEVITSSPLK
T1 sequence (P00742 41-179 partner limits assumed): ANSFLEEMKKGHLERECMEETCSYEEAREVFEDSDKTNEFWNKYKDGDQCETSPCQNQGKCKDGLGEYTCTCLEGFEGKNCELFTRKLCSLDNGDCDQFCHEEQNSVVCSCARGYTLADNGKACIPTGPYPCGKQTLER

Compound	coagulation time prolonging activity (relative value to the control, 1) (mouse plasma)	CT2 value (the concentration for 2-fold prolongation of the coagulation time with DMSO) (human plasma)	IC50 (human factor Xa)
CN(C)CCn1cccc(-c2ccc(C(=O)Nc3c(O)cccc3C(=O)Nc3ccc(Cl)cn3)cc2)c1=O.Cl [Example 10]	3.3 times		
CN1CCC(OCCn2cccc(-c3ccc(C(=O)Nc4c(O)cc(Cl)cc4C(=O)Nc4ccc(Cl)cn4)cc3)c2=O)CC1.Cl [Example 78]	3.9 times		
Cl.Cn1ccc(=O)c(-c2ccc(C(=O)Nc3c(O)cccc3C(=O)Nc3ccc(Cl)cn3)cc2)c1 [Example 1, N-(5-chloropyridin-2-yl)-3-hydroxy-2-{[4-(1-methyl-4-oxo-1,4-dihydropyridin-3-yl)benzoyl]amino}benzamide hydrochloride]		0.34 µM	6.7 nM
Cl.O=C(Nc1c(O)cccc1C(=O)Nc1ccc(Cl)cn1)c1ccc(-c2cccn(CCN3CCCOCC3)c2=O)cc1 [Example 42]		0.65 µM	
Cn1cccc(-c2ccc(C(=O)Nc3c(O)cccc3C(=O)Nc3ccc(Cl)cn3)cc2)c1=O [Example 30]			8.3 nM

From patent US8022208B2, “Benzene derivative or salt thereof” (Astellas Pharma Inc., priority 2005, dated 2011)
